Key:
chickweed [1] = assay: Test Example 4: herbicidal effect by soil treatment (Table 19, symbol P); assay type: in vivo, common chickweed (Stellaria media); details: amount of applied herbicide 320 g/ha
In short: (§1)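 Soil-surface application: an emulsion agent diluted with water to the predetermined dose is sprayed uniformly over seeds lying under roughly 1.5 cm of sterilized diluvial soil. Boxes stay in a greenhouse at 25° C. to 30° C. Three weeks later, each species is graded on previously defined criteria.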

redroot pigweed [2] = assay: Test Example 4: herbicidal effect by soil treatment (Table 19, symbol N); assay type: in vivo, redroot pigweed (Amaranthus retroflexus); details: amount of applied herbicide 320 g/ha
In short: as §1

chickweed [3] = assay: Test Example 5: herbicidal effect by foliage application, plastic box (Table 20, symbol P); assay type: in vivo, common chickweed (Stellaria media); details: 320 g/ha, foliage application after 14-day growth, evaluated three weeks after application
In short: (§2)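 Sow seeds spot-wise in sterilized diluvial soil; cover with ~1.5 cm soil. Grow 14 days in greenhouse, 25° C. to 30° C. Spray foliage with emulsion diluted to predetermined amount. Rate effect after 3 weeks.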

windgrass [4] = assay: Test Example 5: herbicidal effect by foliage application, plastic box (Table 20, symbol L); assay type: in vivo, windgrass (Apera spica-venti); details: 320 g/ha, foliage application after 14-day growth, evaluated three weeks after application
In short: as §2

barnyard grass [5] = assay: Test Example 4: herbicidal effect by soil treatment (Table 19, symbol H); assay type: in vivo, barnyard grass (Echinochloa crus-galli); details: amount of applied herbicide 320 g/ha
In short: as §1

redroot pigweed [6] = assay: Test Example 5: herbicidal effect by foliage application, plastic box (Table 20, symbol N); assay type: in vivo, redroot pigweed (Amaranthus retroflexus); details: 320 g/ha, foliage application after 14-day growth, evaluated three weeks after application
In short: as §2

Italian ryegrass [7] = assay: Test Example 5: herbicidal effect by foliage application, plastic box (Table 20, symbol K); assay type: in vivo, Italian ryegrass (Lolium multiflorum); details: 320 g/ha, foliage application after 14-day growth, evaluated three weeks after application
In short: as §2

green foxtail [8] = assay: Test Example 4: herbicidal effect by soil treatment (Table 19, symbol G); assay type: in vivo, green foxtail (Setaria viridis); details: amount of applied herbicide 320 g/ha
In short: as §1

persian speedwell [9] = assay: Test Example 4: herbicidal effect by soil treatment (Table 19, symbol R); assay type: in vivo, Persian speedwell (Veronica persica); details: amount of applied herbicide 320 g/ha
In short: as §1

lambsquarters [10] = assay: Test Example 4: herbicidal effect by soil treatment (Table 19, symbol O); assay type: in vivo, lambsquarters (Chenopodium album); details: amount of applied herbicide 320 g/ha
In short: as §1

persian speedwell [11] = assay: Test Example 5: herbicidal effect by foliage application, plastic box (Table 20, symbol R); assay type: in vivo, Persian speedwell (Veronica persica); details: 320 g/ha, foliage application after 14-day growth, evaluated three weeks after application
In short: as §2

wild oat [12] = assay: Test Example 4: herbicidal effect by soil treatment (Table 19, symbol I); assay type: in vivo, wild oat (Avena fatua); details: amount of applied herbicide 320 g/ha
In short: as §1

southern crabgrass [13] = assay: Test Example 4: herbicidal effect by soil treatment (Table 19, symbol F); assay type: in vivo, southern crabgrass (Digitaria ciliaris); details: amount of applied herbicide 320 g/ha
In short: as §1

Italian ryegrass [14] = assay: Test Example 4: herbicidal effect by soil treatment (Table 19, symbol K); assay type: in vivo, Italian ryegrass (Lolium multiflorum); details: amount of applied herbicide 320 g/ha
In short: as §1

barnyard grass [15] = assay: Test Example 3: herbicidal effect by foliage application, Wagner pot (Table 18, symbol H); assay type: in vivo, barnyard grass (Echinochloa crus-galli); details: 320 g/ha
In short: (§3)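 Plants were sown in alluvial soil held under 0.1–0.5 cm standing water and grown 14 days in a greenhouse at 25–30 °C. An emulsifiable formulation, water-diluted to the set dose, was then sprayed onto the foliage, and effects were scored three weeks later using previously defined criteria.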

barnyard grass [16] = assay: Test Example 5: herbicidal effect by foliage application, plastic box (Table 20, symbol H); assay type: in vivo, barnyard grass (Echinochloa crus-galli); details: 320 g/ha, foliage application after 14-day growth, evaluated three weeks after application
In short: as §2

blackgrass [17] = assay: Test Example 4: herbicidal effect by soil treatment (Table 19, symbol J); assay type: in vivo, blackgrass (Alopecurus myosuroides); details: amount of applied herbicide 320 g/ha
In short: as §1

velvetleaf [18] = assay: Test Example 4: herbicidal effect by soil treatment (Table 19, symbol M); assay type: in vivo, velvetleaf (Abutilon theophrasti); details: amount of applied herbicide 320 g/ha
In short: as §1

southern crabgrass [19] = assay: Test Example 5: herbicidal effect by foliage application, plastic box (Table 20, symbol F); assay type: in vivo, southern crabgrass (Digitaria ciliaris); details: 320 g/ha, foliage application after 14-day growth, evaluated three weeks after application
In short: as §2

velvetleaf [20] = assay: Test Example 5: herbicidal effect by foliage application, plastic box (Table 20, symbol M); assay type: in vivo, velvetleaf (Abutilon theophrasti); details: 320 g/ha, foliage application after 14-day growth, evaluated three weeks after application
In short: as §2

windgrass [21] = assay: Test Example 4: herbicidal effect by soil treatment (Table 19, symbol L); assay type: in vivo, windgrass (Apera spica-venti); details: amount of applied herbicide 320 g/ha
In short: as §1

rice flat sedge = assay: Test Example 3: herbicidal effect by foliage application, Wagner pot (Table 18, symbol E); assay type: in vivo, rice flat sedge (Cyperus iria); details: 320 g/ha
In short: as §3

green foxtail [22] = assay: Test Example 5: herbicidal effect by foliage application, plastic box (Table 20, symbol G); assay type: in vivo, green foxtail (Setaria viridis); details: 320 g/ha, foliage application after 14-day growth, evaluated three weeks after application
In short: as §2

blackgrass [23] = assay: Test Example 5: herbicidal effect by foliage application, plastic box (Table 20, symbol J); assay type: in vivo, blackgrass (Alopecurus myosuroides); details: 320 g/ha, foliage application after 14-day growth, evaluated three weeks after application
In short: as §2

lambsquarters [24] = assay: Test Example 5: herbicidal effect by foliage application, plastic box (Table 20, symbol O); assay type: in vivo, lambsquarters (Chenopodium album); details: 320 g/ha, foliage application after 14-day growth, evaluated three weeks after application
In short: as §2

wild oat [25] = assay: Test Example 5: herbicidal effect by foliage application, plastic box (Table 20, symbol I); assay type: in vivo, wild oat (Avena fatua); details: 320 g/ha, foliage application after 14-day growth, evaluated three weeks after application
In short: as §2

Chinese sprangletop = assay: Test Example 3: herbicidal effect by foliage application, Wagner pot (Table 18, symbol D); assay type: in vivo, chinese sprangletop (Leptochloa chinensis); details: 320 g/ha
In short: as §3

| Structure (SMILES) | Herbicidal effect by soil treatment, P: chickweed (chickweed [1]) | Herbicidal effect by soil treatment, N: redroot pigweed (redroot pigweed [2]) | herbicidal effect on P: chickweed (evaluation grade 0-5) (chickweed [3]) | herbicidal effect on L: windgrass (evaluation grade 0-5) (windgrass [4]) | Herbicidal effect by soil treatment, H: barnyard grass (barnyard grass [5]) | herbicidal effect on N: redroot pigweed (evaluation grade 0-5) (redroot pigweed [6]) | herbicidal effect on K: Italian ryegrass (evaluation grade 0-5) (Italian ryegrass [7]) | Herbicidal effect by soil treatment, G: green foxtail (green foxtail [8]) | Herbicidal effect by soil treatment, R: persian speedwell (persian speedwell [9]) | Herbicidal effect by soil treatment, O: lambsquarters (lambsquarters [10]) | herbicidal effect on R: persian speedwell (evaluation grade 0-5) (persian speedwell [11]) | Herbicidal effect by soil treatment, I: wild oat (wild oat [12]) | Herbicidal effect by soil treatment, F: southern crabgrass (southern crabgrass [13]) | Herbicidal effect by soil treatment, K: Italian ryegrass (Italian ryegrass [14]) | herbicidal effect on barnyard grass (H) (barnyard grass [15]) | herbicidal effect on H: barnyard grass (evaluation grade 0-5) (barnyard grass [16]) | Herbicidal effect by soil treatment, J: blackgrass (blackgrass [17]) | Herbicidal effect by soil treatment, M: velvetleaf (velvetleaf [18]) | herbicidal effect on F: southern crabgrass (evaluation grade 0-5) (southern crabgrass [19]) | herbicidal effect on M: velvetleaf (evaluation grade 0-5) (velvetleaf [20]) | other results |
| --- | --- | --- | --- | --- | --- | --- | --- | --- | --- | --- | --- | --- | --- | --- | --- | --- | --- | --- | --- | --- | --- |
| Cc1ccc2c(-c3c(O)c(C)nn(C)c3=O)c(-c3ccc(OC(F)F)cc3)sc2c1 [3-151] | 1 (Herbicidal rate of 5% or more and less than 20%) | 0 (Herbicidal rate of 5% or less (almost no effect)) | 5 (Herbicidal rate of 90% or more (almost completely withered)) | 0 (Herbicidal rate of 5% or less (almost no effect)) | 0 (Herbicidal rate of 5% or less (almost no effect)) | 2 (Herbicidal rate of 20% or more and less than 40%) | 2 (Herbicidal rate of 20% or more and less than 40%) | 0 (Herbicidal rate of 5% or less (almost no effect)) | 5 (Herbicidal rate of 90% or more (almost completely withered)) | 0 (Herbicidal rate of 5% or less (almost no effect)) | 5 (Herbicidal rate of 90% or more (almost completely withered)) | 0 (Herbicidal rate of 5% or less (almost no effect)) | 0 (Herbicidal rate of 5% or less (almost no effect)) | 0 (Herbicidal rate of 5% or less (almost no effect)) | 3 (Herbicidal rate of 40% or more and less than 70%) | 0 (Herbicidal rate of 5% or less (almost no effect)) | 0 (Herbicidal rate of 5% or less (almost no effect)) | 0 (Herbicidal rate of 5% or less (almost no effect)) | 0 (Herbicidal rate of 5% or less (almost no effect)) | 3 (Herbicidal rate of 40% or more and less than 70%) | Herbicidal effect by soil treatment, L: windgrass (windgrass [21]): 0 (Herbicidal rate of 5% or less (almost no effect)); herbicidal effect on rice flat sedge (E) (rice flat sedge): 3 (Herbicidal rate of 40% or more and less than 70%); herbicidal effect on G: green foxtail (evaluation grade 0-5) (green foxtail [22]): 0 (Herbicidal rate of 5% or less (almost no effect)); herbicidal effect on J: blackgrass (evaluation grade 0-5) (blackgrass [23]): 0 (Herbicidal rate of 5% or less (almost no effect)); herbicidal effect on O: lambsquarters (evaluation grade 0-5) (lambsquarters [24]): 3 (Herbicidal rate of 40% or more and less than 70%); herbicidal effect on I: wild oat (evaluation grade 0-5) (wild oat [25]): 0 (Herbicidal rate of 5% or less (almost no effect)); herbicidal effect on Chinese sprangletop (D) (Chinese sprangletop): 0 (Herbicidal rate of 5% or less (almost no effect)) |
| COc1ccccc1-c1sc2cc(S(C)(=O)=O)ccc2c1-c1c(O)c(C)nn(C)c1=O [3-165] | 5 (Herbicidal rate of 90% or more (almost completely withered)) | 4 (Herbicidal rate of 70% or more and less than 90%) | 5 (Herbicidal rate of 90% or more (almost completely withered)) | 5 (Herbicidal rate of 90% or more (almost completely withered)) | 3 (Herbicidal rate of 40% or more and less than 70%) | 4 (Herbicidal rate of 70% or more and less than 90%) | 4 (Herbicidal rate of 70% or more and less than 90%) | 3 (Herbicidal rate of 40% or more and less than 70%) | 5 (Herbicidal rate of 90% or more (almost completely withered)) | 0 (Herbicidal rate of 5% or less (almost no effect)) | 5 (Herbicidal rate of 90% or more (almost completely withered)) | 0 (Herbicidal rate of 5% or less (almost no effect)) | 5 (Herbicidal rate of 90% or more (almost completely withered)) | 4 (Herbicidal rate of 70% or more and less than 90%) | 5 (Herbicidal rate of 90% or more (almost completely withered)) | 5 (Herbicidal rate of 90% or more (almost completely withered)) | 3 (Herbicidal rate of 40% or more and less than 70%) | 1 (Herbicidal rate of 5% or more and less than 20%) | 5 (Herbicidal rate of 90% or more (almost completely withered)) | 5 (Herbicidal rate of 90% or more (almost completely withered)) | Herbicidal effect by soil treatment, L: windgrass (windgrass [21]): 3 (Herbicidal rate of 40% or more and less than 70%); herbicidal effect on rice flat sedge (E) (rice flat sedge): 3 (Herbicidal rate of 40% or more and less than 70%); herbicidal effect on G: green foxtail (evaluation grade 0-5) (green foxtail [22]): 4 (Herbicidal rate of 70% or more and less than 90%); herbicidal effect on J: blackgrass (evaluation grade 0-5) (blackgrass [23]): 4 (Herbicidal rate of 70% or more and less than 90%); herbicidal effect on O: lambsquarters (evaluation grade 0-5) (lambsquarters [24]): 4 (Herbicidal rate of 70% or more and less than 90%); herbicidal effect on I: wild oat (evaluation grade 0-5) (wild oat [25]): 4 (Herbicidal rate of 70% or more and less than 90%); herbicidal effect on Chinese sprangletop (D) (Chinese sprangletop): 4 (Herbicidal rate of 70% or more and less than 90%) |
